Results: paper PMC10385282, “Luteolin Protects Pancreatic β Cells against Apoptosis through Regulation of Autophagy and ROS Clearance” (Pharmaceuticals, 2023)

Target: T1, Drak2 (death-associated protein kinase-related apoptosis-inducing kinase-2) (Homo sapiens, UniProt O94768)
T1 construct: gene STK17B
T1 sequence (O94768 1-372): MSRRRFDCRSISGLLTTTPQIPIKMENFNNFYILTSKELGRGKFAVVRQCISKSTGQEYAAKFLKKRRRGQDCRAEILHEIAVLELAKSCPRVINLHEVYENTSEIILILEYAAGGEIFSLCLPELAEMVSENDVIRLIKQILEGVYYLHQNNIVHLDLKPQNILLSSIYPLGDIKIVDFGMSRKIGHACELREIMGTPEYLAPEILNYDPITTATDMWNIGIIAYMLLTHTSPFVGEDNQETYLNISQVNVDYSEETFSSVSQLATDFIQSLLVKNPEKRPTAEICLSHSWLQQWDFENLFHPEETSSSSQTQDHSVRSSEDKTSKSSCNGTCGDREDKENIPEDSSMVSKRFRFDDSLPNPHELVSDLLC
Test: biochemical
Set-up: ADP-Glo kinase assay, luminescence, residual Drak2 activity at 20 uM compound
Conditions: read-out: % of control remaining
Procedure: ADP-Glo kits (Promega, Madison, WI; #V6903) were used for Drak2 inhibitor screening. Drak2 activity was measured and calculated from the amount of ADP generated from the enzyme reaction. The compounds were dissolved in DMSO and diluted to the indicated concentration for the screening assay. Drak2 and substrate ATP were diluted in 1X Buffer (HEPES 50 mM (pH 7.0), NaN3 0.02%, Orthovanadate 0.1 mM, 5 mM MgCl2, 0.01% (w/v) bovine serum albumin). The 5 µL kinase reaction was performed using 1X kinase buffer that contained 1 μL of compound, 2 μL of Drak2 (160 nM) and 2 μL of substrate ATP (20 μM), and incubated for 2 h at room temperature. Then, 2.5 μL of ADP-Glo™ Reagent was added to each reaction and incubated for 2 h at room temperature to deplete the remaining ATP. Finally, 5 μL of Kinase Detection Reagent was added to each reaction to convert ADP to ATP via the luciferase reaction, which was detected using an EnVision multilabel plate reader. 22b was used as a positive control in the assay. Our previous work validated that Drak2 inhibitors can prevent pancreatic β cells from undergoing lipotoxicity-induced cell apoptosis. Therefore, we established a kinase activity detection assay in vitro using the ADP-Glo^TM Kinase Assay kit (Promega, Madison, WI, USA) and screened the Natural Product and Derivatives Focus Library to identify small molecules that can inhibit Drak2 activity. […]

O=c1cc(-c2ccc(O)c(O)c2)oc2cc(O)cc(O)c12 [luteolin]
remaining activity at 20 µM: 7.74 ± 1.75%
